Source: PMC8536644, “Enigmatic mechanism of the N-vinylpyrrolidone hepatocarcinogenicity in the rat” (Archives of Toxicology, 2021)
“And” between values parts separate entries of the source, which are not always exact repeats. Identical values can stand only once.

Assays:
rat lung cells = assay: Comet assay in presence of FPG, lung; details: with FPG, 5 days; for TI (%), mean of medians from 2 slides: individual animals
Method: Animals were anesthetized by 3.5% isoflurane (approximately 3 min, evaporator Dräger Vapor 19.3) and then killed by cervical dislocation. The liver was removed and its left lateral lobe used for the Comet assay. The remainder of the liver was washed in saline and then in two aliquots shock frozen in liquid nitrogen and stored at − 80 °C for later examinations. Subsequently the lung was removed from the dead animal. Its left lobe was used for the Comet assay and the remainder treated as described above for the liver. Thereafter the femora were removed for the preparation of the bone marrow.
The Comet assay was performed under alkaline conditions according to the principles described by Singh et al. ([1988]) and Tice et al. ([2000]).
Liver and lung cells were obtained essentially as described by Hartmann et al. ([2004]) and by the Japanese Center for the Validation of Alternative Methods (JaCVAM [2009]). Single cells were obtained within 1 h after killing of the animals in order to minimize DNA damage during the preparation.
The organ parts (see above) were washed in mincing buffer (50 mM EDTA in HBSS [without Ca^2+ and Mg^2+] pH 7.5: DMSO 9:1 (v/v), the latter added shortly before use, stored at 4 °C), cut into 1 to 2-mm pieces in ice-cold mincing buffer and transferred to a cell sieve with 70-µm pores. The viability of the cell suspension was evaluated by the Trypan Blue Assay (Strober [2001]).
100 µL of the obtained cell suspension was mixed at 37 °C with 900 µL Low Melting Agarose (LMA) (0.7% agarose in phosphate-buffered saline [PBS] [Biochrom, Berlin, Germany] without Ca^2+ and Mg^2+). 100 µL of this mixture was transferred to a slide, which had been coated with Normal Melting Agarose (NMA) (0.6% agarose in PBS without Ca^2+ and Mg^2+). The slides were protected with a cover slip and the agarose was hardened at approximately 4 °C. The cover slips were then removed and the slides put over night at 4 °C into lysis buffer (2.5 M NaCl, 125 mM NaOH, 127 mM EDTA, 10 mM Tris/NaOH, pH 10; 1% Triton X-100 and 10% DMSO (v/v), the latter two added before use) in order to lyse the cell membrane, nuclear membrane and remove the histone.
The then following procedures were performed in a shaded room to minimize UV-mediated DNA damage during the procedures.
Those slides which were destined to be treated with the DNA base excision repair enzyme FPG (Sigma Aldrich, Steinheim, Germany) were washed (3 times for 5 min) with FPG buffer (0.04 M HEPES, 0.5 mM EDTA, 0.1 M KCl, pH 8; add shortly before use bovine serum albumin [BSA] to a final concentration of 0.02%). Subsequently 50 µL FPG-enzyme-buffer (prepared shortly prior to use by 30-fold dilution of the following suspension in FPG buffer: 7 µL FPG-enzyme (14 U) and 70 µL glycerol in 623 µL FPG-Puffer, stored at − 80 °C) was pipetted on the slide which was covered with a cover slide and incubated for 30 min at 37 °C while being placed on a humid filter paper. After hardening of the agarose cover slips were removed.
Remaining lysis buffer or FPG buffer was removed by immersing/washing the slides in PBS (without Ca^2+ and Mg^2+).

CYP2E1 = assay: Lauric acid hydroxylase assay, 11-hydroxylation; assay type: in vivo, rat
Method: ^14C-labelled lauric acid (55 mCi/mmol) dissolved in ethanol (0.1 mCi/mL; total volume 2.5 mL) was purchased from American Radiolabeled Chemicals. 10 µL of this solution were diluted with methanol to 2 mL. The purity was checked by radio-HPLC. For the enzyme activity determinations 1.21 mL of this solution were treated in the thermomixer at 40 °C and 300 rpm until the ethanol was completely evaporated. The residue was taken up in 550 µL DMSO and checked on the incubation days by radio-HPLC and by liquid scintillation counting (LSC). To this end the just-mentioned solution in DMSO (nominally 8.14 MBq/mL) was 100-fold diluted with methanol, 50 µL of the resultant solution used for the HPLC analysis, 100 µL for the LSC analysis (488,400 dpm/100 µL).
For the determination of the lauric acid hydroxylase activity the liver microsomal fractions (prepared as described in the preceding chapter “Aryl hydrocarbon receptor”) derived from the NVP-treated (and untreated control) male rats were adjusted with TrisHCl pH 7.5–20 mg protein/mL. Obtained samples were measured in duplicates. Controls were heat-denatured samples (15 min at 99 °C in the thermomixer at 450 rpm), zero-time samples (reaction stopped immediately after adding substrate) and buffer controls (TrisHCl pH 7.5, no microsomal protein). 155 µL master mix (100 mM TrisHCl pH 7.5, 10 mM MgCl2, 2 mM 5’AMP-Na2, 5 mM G-6-P, 10 U G-6-P-DH) and 30 µL sample were preincubated for 3 min at 37 °C. Subsequently 10 µL of a 2-mM NADPH solution and 5 µL ^14C-lauric acid (8.14 MBq/mL) were added (lauric acid final concentration in the incubation 100 µM). The reaction was run for 20 min at 37 °C in the thermomixer (450 rpm) and stopped by the addition of 200 µL ice-cold acetone. Proteins were sedimented by centrifugation (6000 g, 10 min, 4 °C) and the supernatant used for the analysis by HPLC (system: Agilent 1260 infinity, column: EC250/4 Nucleosil, 120–5 C18, radio detector: Berthold FlowStar LB 513) under the following conditions: Injection volume 50 µL; eluent A: Methanol/acetic acid/water (600/5/400 mL), eluent B: Methanol; gradient: 0–10 min 100% eluent A, 10–20 min 0–100% eluent B, 20–30 min 100% eluent B, 30–40 min 100% eluent A; flow rate: 0.8 mL/min. In order to ascertain the assignment of the peaks to 11-hydroxylauric acid versus 12-hydroxylauric acid the retention times and mass spectra (HPLC-QTOF/MS) of a 12-hydroxylauric acid standard were compared with the lauric acid incubates (parameters of the HPLC-QTOF/MS system: (U)HPLC: Agilent 1200 und 1290; MS instrument: MS324/Agilent/S/N US10318001; radio detector: Raytest/Mirastar Masshunter Data Acquisition B.06.01; ionisation mode: ESI, negative mode).

[1] = lauric acid 11-hydroxylation, liver microsomes, 20 ppm NVP, individual animals 19-24

C=CN1CCCC1=O [NVP, N-vinylpyrrolidone]
Hedgehogs/100 cells (mean ± SD) (rat lung cells; female, 5 ppm inhalation): 3 ± 2 /100 cells | TI (%) (mean ± SD) (rat lung cells; female, 5 ppm inhalation): 7.8 ± 1.30% | TI (%), mean of medians from 2 slides (rat lung cells; female, 5 ppm inhalation): 8.6% and 7.0% and 6.8% and 10.1% and 7.1% and 7.3% | Hedgehogs/100 cells (mean ± SD) (rat lung cells; female, 10 ppm inhalation): 1 ± 1 /100 cells | TI (%) (mean ± SD) (rat lung cells; female, 10 ppm inhalation): 7.2 ± 1.81% | TI (%), mean of medians from 2 slides (rat lung cells; female, 10 ppm inhalation): 8.7% and 8.1% and 7.9% and 8.4% and 6.0% and 4.0% | Hedgehogs/100 cells (mean ± SD) (rat lung cells; female, 20 ppm inhalation): 3 ± 1 /100 cells | TI (%) (mean ± SD) (rat lung cells; female, 20 ppm inhalation): 7.4 ± 2.90% | TI (%), mean of medians from 2 slides (rat lung cells; female, 20 ppm inhalation): 6.2% and 8.6% and 10.2% and 2.3% and 7.7% and 9.7% | Hedgehogs/100 cells (mean ± SD) (rat lung cells; male, 5 ppm inhalation): 2 ± 2 /100 cells | TI (%) (mean ± SD) (rat lung cells; male, 5 ppm inhalation): 6.4 ± 0.69% | TI (%), mean of medians from 2 slides (rat lung cells; male, 5 ppm inhalation): 6.1% and 7.5% and 6.6% and 5.5% and 6.5% | Hedgehogs/100 cells (mean ± SD) (rat lung cells; male, 10 ppm inhalation): 4 ± 4 /100 cells | TI (%) (mean ± SD) (rat lung cells; male, 10 ppm inhalation): 7.9 ± 3.21% | TI (%), mean of medians from 2 slides (rat lung cells; male, 10 ppm inhalation): 12.0% and 3.6% and 6.0% and 7.3% and 7.2% and 11.4% | Hedgehogs/100 cells (mean ± SD) (rat lung cells; male, 20 ppm inhalation): 1 ± 1 /100 cells | TI (%) (mean ± SD) (rat lung cells; male, 20 ppm inhalation): 3.9 ± 0.72% | TI (%), mean of medians from 2 slides (rat lung cells; male, 20 ppm inhalation): 3.8% and 3.5% and 5.2% and 3.6% and 3.3% and 4.2% | Lauric acid 11-hydroxylation activity (CYP2E1; 20 ppm, male rat liver microsomes): 5149 ± 2010 peak area/min/mg protein | Increase of lauric acid 11-hydroxylation vs vehicle control (CYP2E1; 20 ppm, statistically not significant): 1.1 fold | ω-1-hydroxylase (CYP2E1-activity), enzyme activity individual (CYP2E1; [1]): 7458 peak surface/min/mg protein and 7295 peak surface/min/mg protein and 3522 peak surface/min/mg protein and 5008 peak surface/min/mg protein and 5216 peak surface/min/mg protein and 2393 peak surface/min/mg protein | ω-1-hydroxylase (CYP2E1-activity), peak surface (CYP2E1; [1]): 9940 and 10,040 and 5283 and 7513 and 7824 and 3996 | ω-1-hydroxylase (CYP2E1-activity), enzyme activity group (mean ± SD) (CYP2E1; lauric acid 11-hydroxylation, liver microsomes, 20 ppm NVP, vehicle 4512 ± 1050): 5149 ± 2010 peak surface/min/mg protein
